Consider 21 molecules from PubChem BioAssay AID330 (DTP/NCI, 2004).

For the assay, the system named is P388 leukemia ip, CD2F1 mice, survival T/C. As to the kind of experiment: NCI In Vivo Anticancer Drug Screen. Data for tumor model P388 Leukemia (intraperitoneal) in CD2F1 (CDF1) mice. The conditions noted are these: endpoint: median survival time, higher = longer survival. In outline:
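Mice carrying the transplanted tumor received test compound or vehicle. Survival was recorded in each group, and the value is the treated-group measurement divided by that of the vehicle-treated control group.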

Setting [1] is: dose: 50.0 mg/kg/injection, schedule: Q01DX009 (ip), vehicle: saline with Tween-80.
[2] abbreviates: dose: 100.0 mg/kg/injection, schedule: Q01DX009 (ip), vehicle: saline with Tween-80.
The mark [3] stands for this setting: dose: 200.0 mg/kg/injection, schedule: Q01DX009 (ip), vehicle: saline with Tween-80.
Where [4] appears, read: dose: 400.0 mg/kg/injection, schedule: Q01DX009 (ip), vehicle: saline with Tween-80.
Where [5] appears, read: dose: 100.0 mg/kg/injection, schedule: Q01DX005 (ip), vehicle: saline.
The mark [6] stands for this setting: dose: 200.0 mg/kg/injection, schedule: Q01DX005 (ip), vehicle: saline.
Where [7] appears, read: dose: 25.0 mg/kg/injection, schedule: Q01DX009 (ip), vehicle: Klucel (hydroxypropylcellulose) (HPC).
Setting [8] is: dose: 50.0 mg/kg/injection, schedule: Q01DX009 (ip), vehicle: Klucel (hydroxypropylcellulose) (HPC).
Setting [9] is: dose: 60.0 mg/kg/injection, schedule: Q01DX005 (ip), vehicle: saline with Tween-80.
[10] abbreviates: dose: 120.0 mg/kg/injection, schedule: Q01DX005 (ip), vehicle: saline with Tween-80.
The mark [11] stands for this setting: dose: 240.0 mg/kg/injection, schedule: Q01DX005 (ip), vehicle: saline with Tween-80.
Where [12] appears, read: dose: 100.0 mg/kg/injection, schedule: Q01DX009 (ip), vehicle: Klucel (hydroxypropylcellulose) (HPC).
[13] abbreviates: dose: 100.0 mg/kg/injection, schedule: Q04DX003 (ip), vehicle: saline with Tween-80.
Where [14] appears, read: dose: 200.0 mg/kg/injection, schedule: Q04DX003 (ip), vehicle: saline with Tween-80.
Where [15] appears, read: dose: 400.0 mg/kg/injection, schedule: Q04DX003 (ip), vehicle: saline with Tween-80.
Where [16] appears, read: dose: 12.5 mg/kg/injection, schedule: Q01DX009 (ip), vehicle: saline with Tween-80.
Setting [17] is: dose: 25.0 mg/kg/injection, schedule: Q01DX009 (ip), vehicle: saline with Tween-80.

Values joined by “and” are separate entries in the source; they are usually repeats but may differ in a detail not shown here. Identical values can stand only once. Inconclusive results and toxic doses are left out.

Consider `CCOC(=O)CCC(NC(=O)c1ccc(N(C)CCC(C)=O)cc1)C(=O)OCC` (stereo not given), for which the T/C runs as follows: under setting [1], 111 % of control; under setting [2], 111 % of control; under setting [3], 102 % of control; under setting [4], 97 % of control.
Regarding `COC(=O)C1c2c(C)cc3n2C(C(C)=CC3)C1C(=O)OC` (stereo not given), the T/C by setting is: (dose: 100.0 mg/kg/injection, schedule: Q04DX003 (ip), vehicle: Klucel (hydroxypropylcellulose) (HPC)) 99 % of control; (dose: 200.0 mg/kg/injection, schedule: Q04DX003 (ip), vehicle: Klucel (hydroxypropylcellulose) (HPC)) 96 % of control; (dose: 400.0 mg/kg/injection, schedule: Q04DX003 (ip), vehicle: Klucel (hydroxypropylcellulose) (HPC)) 99 % of control.
For `COc1cc(N(CC(C)Br)CC(C)Br)ccc1N=Nc1ccccc1C(=O)O` (stereo not given), the T/C was 164 % of control (dose: 1.56 mg/kg/injection, schedule: Q01DX009 (ip), vehicle: saline with Tween-80); 160 % of control and 169 % of control (dose: 3.12 mg/kg/injection, schedule: Q01DX009 (ip), vehicle: saline with Tween-80).
For `[CH3][Ge]1([CH3])[CH]=CC(O)[CH2]1` (stereo not given), the T/C is 98 % of control (dose: 50.0 mg/kg/injection, schedule: Q01DX005 (ip), vehicle: saline); 100 % of control under setting [5]; 100 % of control under setting [6].
Regarding `[NH-]NC(=S)[S-].[NH-]NC(=S)[S-].[Pt+4]`, the T/C is 103 % of control (dose: 12.5 mg/kg/injection, schedule: Q04DX003 (ip), vehicle: Klucel (hydroxypropylcellulose) (HPC)); 100 % of control (dose: 25.0 mg/kg/injection, schedule: Q04DX003 (ip), vehicle: Klucel (hydroxypropylcellulose) (HPC)); 109 % of control (dose: 50.0 mg/kg/injection, schedule: Q04DX003 (ip), vehicle: Klucel (hydroxypropylcellulose) (HPC)).
Consider `COc1ccc(C2SCC(=O)N2c2nncs2)c(OC)c1` (stereo not given), for which the T/C was 99 % of control (dose: 60.0 mg/kg/injection, schedule: Q01DX005 (ip), vehicle: Klucel (hydroxypropylcellulose) (HPC)); 106 % of control (dose: 120.0 mg/kg/injection, schedule: Q01DX005 (ip), vehicle: Klucel (hydroxypropylcellulose) (HPC)); 110 % of control (dose: 240.0 mg/kg/injection, schedule: Q01DX005 (ip), vehicle: Klucel (hydroxypropylcellulose) (HPC)).
`NNC(=O)CN1c2ccccc2Sc2ccc(Cl)cc21`: the T/C is 104 % of control (dose: 6.25 mg/kg/injection, schedule: Q01DX009 (ip), vehicle: Klucel (hydroxypropylcellulose) (HPC)); 95 % of control (dose: 12.5 mg/kg/injection, schedule: Q01DX009 (ip), vehicle: Klucel (hydroxypropylcellulose) (HPC)); 97 % of control under setting [7]; 99 % of control under setting [8].
In the case of `CCCCCCCCCCC1SCC(=O)N1c1nncs1` (stereo not given), the T/C was 102 % of control under setting [9], 97 % of control under setting [10] and 94 % of control under setting [11].
As to `COc1c(C(C)C)cc2c(c1OC)C13CCCC(C)(C)C1C(OC3=O)C2NC(=O)CN1CCN(CCO)CC1` (stereo not given), the T/C was 106 % of control under setting [7], 97 % of control under setting [8] and 88 % of control under setting [12].
On to `COC(=O)C1=C/CCCN(CCC2OCCO2)/C=C\1C(=O)OC`, for which the T/C was 106 % of control under setting [13], 99 % of control under setting [14] and 108 % of control under setting [15].
On to `O=[N+]([O-])c1cccn2nc(COCCO)nc12`, for which the T/C by setting is: (dose: 12.5 mg/kg/injection, schedule: Q01DX005 (ip), vehicle: saline with Tween-80) 97 % of control; (dose: 25.0 mg/kg/injection, schedule: Q01DX005 (ip), vehicle: saline with Tween-80) 94 % of control; (dose: 50.0 mg/kg/injection, schedule: Q01DX005 (ip), vehicle: saline with Tween-80) 97 % of control; under setting [5], 113 % of control; under setting [6], 109 % of control.
Consider `S=c1sc2ccccc2n1CCNc1ccccc1`, for which the T/C by setting is: under setting [2], 90 % of control; under setting [13], 90 % of control; under setting [3], 90 % of control; under setting [14], 95 % of control; under setting [4], 86 % of control; under setting [15], 104 % of control.
Turning to `CCCCCCCCCCCCCCC(O)c1cccc(OC)c1` (stereo not given), the T/C is, setting by setting: (dose: 7.5 mg/kg/injection, schedule: Q01DX009 (ip), vehicle: saline with Tween-80) 109 % of control; (dose: 15.0 mg/kg/injection, schedule: Q01DX009 (ip), vehicle: saline with Tween-80) 113 % of control; (dose: 30.0 mg/kg/injection, schedule: Q01DX009 (ip), vehicle: saline with Tween-80) 109 % of control.
Consider `C=CCSc1ncnc2c1ncn2C1OC(CO)C(O)C1O` (stereo not given), for which the T/C runs as follows: (dose: 100.0 mg/kg/injection, schedule: Q04DX003 (ip), vehicle: saline sonified) 105 % of control; (dose: 200.0 mg/kg/injection, schedule: Q04DX003 (ip), vehicle: saline sonified) 115 % of control; (dose: 400.0 mg/kg/injection, schedule: Q04DX003 (ip), vehicle: saline sonified) 120 % of control.
For the molecule `C=C(C)C(=O)OC1C(C(C)CCCO)=C(CO)CC2OC(=O)C(=C)C21` (stereo not given), the T/C is, setting by setting: (dose: 3.12 mg/kg/injection, schedule: Q01DX009 (ip), vehicle: saline + alcohol) 108 % of control; (dose: 6.25 mg/kg/injection, schedule: Q01DX009 (ip), vehicle: saline + alcohol) 112 % of control; (dose: 12.5 mg/kg/injection, schedule: Q01DX009 (ip), vehicle: saline + alcohol) 118 % of control; (dose: 25.0 mg/kg/injection, schedule: Q01DX009 (ip), vehicle: saline + alcohol) 111 % of control.
On to `CC1CN=C(c2ccc(NC(=O)Nc3ccc(C(=O)Nc4ccc(C5=NCC(C)N5)cc4)cc3)cc2)N1` (stereo not given), for which the T/C under setting [16] was 195 % of control; the T/C under setting [17] is 159 % of control and 213 % of control; the T/C (dose: 25.0 mg/kg/injection, schedule: Q04DX003 (ip), vehicle: saline with Tween-80) is 116 % of control; the T/C under setting [1] is 95 % of control; the T/C under setting [13] was 150 % of control; the T/C (dose: 100.0 mg/kg/injection, schedule: Q04DX003 (ip), vehicle: saline) is 163 % of control.
Turning to `O=C1OC(C2OC(=O)C(=O)C2C2CCCCCCC2=O)C(C2CCCCCCC2=O)C1=O` (stereo not given), the T/C was 102 % of control under setting [9], 95 % of control under setting [10] and 100 % of control under setting [11].
Regarding `CCN(CC)Cc1cc(N=Nc2ccc(-c3ccc(N)c(OC)c3)cc2OC)c2ccccc2c1O`, the T/C was 92 % of control under setting [8]; 99 % of control under setting [12]; 93 % of control (dose: 200.0 mg/kg/injection, schedule: Q01DX009 (ip), vehicle: Klucel (hydroxypropylcellulose) (HPC)).
For the molecule `CCOC(=O)[C]1([Bi]([CH3])[CH3])N=NC(C(=O)OC)=C1C(=O)OC` (stereo not given), the T/C is 93 % of control (dose: 25.0 mg/kg/injection, schedule: Q04DX003 (ip), vehicle: saline); 97 % of control (dose: 50.0 mg/kg/injection, schedule: Q04DX003 (ip), vehicle: saline); 99 % of control under setting [13].
As to `CONS(=O)(=O)c1ccccc1C(=O)OC`, the T/C is 105 % of control (dose: 50.0 mg/kg/injection, schedule: Q01DX005 (ip), vehicle: Klucel (hydroxypropylcellulose) (HPC)); 100 % of control (dose: 100.0 mg/kg/injection, schedule: Q01DX005 (ip), vehicle: Klucel (hydroxypropylcellulose) (HPC)); 103 % of control (dose: 200.0 mg/kg/injection, schedule: Q01DX005 (ip), vehicle: Klucel (hydroxypropylcellulose) (HPC)).
On to `CCCCCCCCCCCC(=O)OCCN(CCOC(=O)CCCCCCCCCCC)C(=O)COC(=O)CCCCCCCCCCC`, for which the T/C is 96 % of control (dose: 6.25 mg/kg/injection, schedule: Q01DX009 (ip), vehicle: saline with Tween-80); 98 % of control under setting [16]; 100 % of control under setting [17]; 111 % of control (dose: 100.0 mg/kg/injection, schedule: Q01DX009 (ip), vehicle: saline + Tween-80 + alcohol); 107 % of control (dose: 200.0 mg/kg/injection, schedule: Q01DX009 (ip), vehicle: saline + Tween-80 + alcohol).
